pIC50: −log10 of the molar value.
Key:
[1] = test system: LNCaP; experiment: Growth inhibition of human LNCAP cells after 48 hrs by WST-1 assay; assay type: functional
[2] = test system: PC-3; experiment: Growth inhibition of human PC3 cells after 48 hrs by WST-1 assay; assay type: functional; details: PC-3, 48 h
[3] = test system: DU-145; experiment: Growth inhibition of human DU145 cells after 48 hrs by WST-1 assay; assay type: functional; details: DU-145, 48 h
[4] = target: T1, Signal transducer and activator of transcription 3 (Homo sapiens, UniProt P40763); experiment: Inhibition of STAT3 phosphorylation in human DU145 cells assessed as ratio of phosphorylated STAT3 protein level to GAPDH protein level at […] after 1 hr by Western blot analysis (reference value: 1); assay type: cell-based
T1 sequence (P40763 whole entry): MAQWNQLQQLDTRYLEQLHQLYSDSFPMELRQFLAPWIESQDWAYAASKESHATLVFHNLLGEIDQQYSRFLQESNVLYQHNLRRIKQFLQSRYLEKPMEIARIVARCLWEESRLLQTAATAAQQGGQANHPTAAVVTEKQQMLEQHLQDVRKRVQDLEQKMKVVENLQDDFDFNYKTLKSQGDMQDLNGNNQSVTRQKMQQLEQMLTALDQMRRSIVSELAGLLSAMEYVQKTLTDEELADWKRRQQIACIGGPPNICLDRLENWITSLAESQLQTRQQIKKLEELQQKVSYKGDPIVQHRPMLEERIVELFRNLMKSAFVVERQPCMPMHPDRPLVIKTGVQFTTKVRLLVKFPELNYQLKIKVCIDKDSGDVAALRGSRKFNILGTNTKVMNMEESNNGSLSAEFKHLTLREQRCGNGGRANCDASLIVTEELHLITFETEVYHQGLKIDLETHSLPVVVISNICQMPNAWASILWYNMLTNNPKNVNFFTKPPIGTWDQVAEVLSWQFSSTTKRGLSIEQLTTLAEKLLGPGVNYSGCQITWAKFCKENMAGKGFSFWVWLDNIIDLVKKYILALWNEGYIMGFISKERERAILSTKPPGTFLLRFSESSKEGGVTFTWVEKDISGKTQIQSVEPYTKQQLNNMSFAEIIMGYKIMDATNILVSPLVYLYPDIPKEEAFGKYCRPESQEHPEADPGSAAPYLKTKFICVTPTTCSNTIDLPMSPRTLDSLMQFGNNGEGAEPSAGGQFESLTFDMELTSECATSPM

[5] = test system: DU-145; experiment: Effect on total STAT3 protein level in human DU145 cells assessed as ratio of ERK1/2 protein level to GAPDH protein level at 2 mM after 1 hr by Western blot analysis (reference value: 1); assay type: ADME, cell-based; details: du-145, 1 h, 2000 µM
[6] = test system: LNCaP; experiment: Growth inhibition of human LNCAP cells after 24 to 48 hrs by WST-1 assay; assay type: functional
[7] = test system: DU-145; experiment: Effect on total STAT3 protein level in human DU145 cells assessed as ratio of STAT3 protein level to GAPDH protein level at 7 uM after 24 hrs by Western blot analysis (reference value: 1); assay type: ADME, cell-based; details: du-145, 24 h
[8] = target: T1, Signal transducer and activator of transcription 3; experiment: Inhibition of STAT3 phosphorylation at Tyr705 residues in human DU145 cells after 24 hrs by Western blot analysis; assay type: cell-based
[9] = target: T1, Signal transducer and activator of transcription 3; experiment: Inhibition of STAT3 phosphorylation at Tyr705 residues in human DU145 cells assessed as ratio of phosphorylated STAT3 protein level to GAPDH protein level at 5 uM after 24 hrs by Western blot analysis (reference value: 1); assay type: cell-based
[10] = target: T1, Signal transducer and activator of transcription 3; experiment: Inhibition of STAT3 phosphorylation at Tyr705 residues in human DU145 cells by Western blot analysis; assay type: cell-based
[11] = test system: DU-145; experiment: Effect on total STAT3 protein level in human DU145 cells assessed as ratio of STAT3 protein level to GAPDH protein level at 3 uM after 24 hrs by Western blot analysis (reference value: 1); assay type: ADME, cell-based; details: du-145, 24 h
[12] = test system: DU-145; experiment: Effect on total STAT3 protein level in human DU145 cells assessed as ratio of STAT3 protein level to GAPDH protein level at 1 uM after 24 hrs by Western blot analysis (reference value: 1); assay type: ADME, cell-based; details: du-145, 24 h
[13] = test system: PC-3; experiment: Growth inhibition of human PC3 cells after 24 to 48 hrs by WST-1 assay; assay type: functional
[14] = target: T1, Signal transducer and activator of transcription 3; experiment: Inhibition of STAT3 phosphorylation at Tyr705 residues in human DU145 cells assessed as ratio of phosphorylated STAT3 protein level to GAPDH protein level at 10 uM after 24 hrs by Western blot analysis (reference value: 1); assay type: cell-based
[15] = target: T1, Signal transducer and activator of transcription 3; experiment: Inhibition of STAT3 phosphorylation at Tyr705 residues in human DU145 cells assessed as ratio of phosphorylated STAT3 protein level to GAPDH protein level at 1 uM after 24 hrs by Western blot analysis (reference value: 1); assay type: cell-based
[16] = target: T1, Signal transducer and activator of transcription 3; experiment: Inhibition of STAT3 phosphorylation at Tyr705 residues in human DU145 cells assessed as ratio of phosphorylated STAT3 protein level to GAPDH protein level at 7 uM after 24 hrs by Western blot analysis (reference value: 1); assay type: cell-based
[17] = target: T1, Signal transducer and activator of transcription 3; experiment: Inhibition of STAT3 phosphorylation at Tyr705 residues in human DU145 cells assessed as ratio of phosphorylated STAT3 protein level to GAPDH protein level at 3 uM after 24 hrs by Western blot analysis (reference value: 1); assay type: cell-based
[18] = test system: DU-145; experiment: Effect on total STAT3 protein level in human DU145 cells assessed as ratio of STAT3 protein level to GAPDH protein level at 10 uM after 24 hrs by Western blot analysis (reference value: 1); assay type: ADME, cell-based; details: du-145, 24 h
[19] = test system: DU-145; experiment: Effect on total STAT3 protein level in human DU145 cells assessed as ratio of STAT3 protein level to GAPDH protein level at 5 uM after 24 hrs by Western blot analysis (reference value: 1); assay type: ADME, cell-based; details: du-145, 24 h

SMILES	GI50 [1] [µM]	GI50 [2] [µM]	GI50 [3] [µM]	further results
C=C(C)C(=O)N(Cc1cccc(Br)c1)C(=O)/C=C/c1cc(OC)c(OC)c(OC)c1	10	> 10	5.7	
C=C(C)C(=O)NC(=O)/C=C/c1cc(OC)c(OC)c(OC)c1	10	8.2	8.6	
C=C(C)C(=O)N(Cc1ccccc1C)C(=O)/C=C/c1cc(OC)c(OC)c(OC)c1	10	> 10	4.2	
C=C(C)C(=O)N(C)C(=O)/C=C/c1cc(OC)c(OC)c(OC)c1	> 10	> 10	5.6	
CC(=O)N[C@@H](CS)C(=O)O [ACETYLCYSTEINE]				Ratio [4]: 1; Ratio [5]: 0.8
COc1cc(/C=C/C(=O)N2CCC=CC2=O)cc(OC)c1OC [PIPLARTINE]	9.2	> 10	7.1	GI50 [6]: > 10 µM; Ratio [7]: 1; pIC50 [8]: 5.15; Ratio [9]: 0.7; inhibition [10]: Dose-dependent effect; Ratio [11]: 1.1; Ratio [12]: 1; GI50 [13]: > 10 µM; Ratio [14]: 0.3; Ratio [15]: 0.8; Ratio [16]: 0.5; Ratio [17]: 0.7; Ratio [18]: 0.9; Ratio [19]: 1
C#CCN(C(=O)/C=C/c1cc(OC)c(OC)c(OC)c1)C(=O)C(=C)C	> 10	7.3	2.3	

From ChEMBL document CHEMBL4219265, “Piperlongumine derivative, CG-06, inhibits STAT3 activity by direct binding to STAT3 and regulating the reactive oxygen species in DU145 prostate carcinoma cells” (Bioorg Med Chem Lett, 2018)
